Assay results reported in US12698281B2, “Thiazole derivatives for therapeutic use” (NIMML Institute, priority 2022, dated 2026).

Tests used:
DSS colitis model = test: DSS colitis model; assay type: in vivo, mice; details: oral, 20 mg/kg once daily, DSS in drinking water for seven days; for proportion of CD4+ IFNγ+ cells in the colonic lamina propria: flow cytometry; for severity of disease by macroscopic scoring of the colon: score 0 to 4, relative to vehicle group
Description: Inflammation of the gastrointestinal tract can be caused by numerous factors including food antigens, infectious agents, autoimmunity, or radiation. The dextran sulfate sodium (DSS) model provides a model system where the epithelial barrier is disrupted in the distal intestine allowing for translocation of bacteria and generation of immune responses. DSS model. Mice were given DSS in drinking water for seven days. At project initiation, mice were approximately 8 weeks of age and began dosing 24 hours after being placed on DSS water. Treatments were prepared within a 0.5% methylcellulose solution. The dosage used was 20 mg/kg delivered once daily. At conclusion, colons were scored macroscopically for presence of lesions, blood, stool consistency, mucosal thickening, friability and length on a summarized score from 0 to 4. Flow cytometry. Colons were collected into RPMI/FBS buffer containing collagenase and DNase for digestion. Tissues were digested for 60 minutes under stifling at 37° C. Resultant cellular suspensions were filtered through 100 um strainers, centrifuged and washed in fresh RPMI. Following filtration, immune cells were purified by Percoll gradient of the cell-containing 40% Percoll overlayed onto 70% Percoll solution. After centrifugation, interphase was collected and washed to obtain enriched colonic lamina propria cell fractions. Cells were labeled with mixtures of extracellular and intracellular antibodies to quantify the presence of CD45+ CD3+ CD4+ CD8− IFNγ+ cells. Data was acquired using a FACS Celesta flow cytometer with FACSDiva software.

CD4+ T cells = test: CD4+ T cell culture, CD4+ IFNγ+ cells by flow cytometry; assay type: cell-based, mice; details: 24 hours, PMA and ionomycin final 6 hours, relative to vehicle treated wells
Method: CD4+ T cells are central to the generation of inflammation in a variety of conductions. In addition, CD4+ T cells are primary responders to the IL-18 cytokine. As such, CD4+ T cells were cultured in vitro in the presence of selected compounds to test for pharmacological activity.
CD4+ T cell culture. Spleens were excised from mice and crushed between frosted microscope slides. Cellular suspension was filtered, centrifuged and exposed to hypotonic lysis to remove red blood cells. CD4+ T cells were enriched by magnetic sorting. Cells were re-suspended in IMDM and cultured in CD3- and CD28-coated round bottom wells. Cells were treated with indicated compounds at 10 and 100 nM or vehicle for 24 hours. During the final 6 hours, cells were stimulated with phorbol myristate acetate and ionomycin. Cells were then collected and stained with antibodies to detect CD45+ CD4+ IFNγ+ cells by flow cytometry. Data was acquired using a FACS Celesta flow cytometer with FACSDiva software.

## COc1cc(-c2cnc(C(=O)C3CCN(C(=O)c4cnnc5ccccc45)CC3)s2)ccc1O [Compound 11, cinnolin-4-yl(4-(5-(4-hydroxy-3-methoxyphenyl)thiazole-2-carbonyl)-piperidin-1-yl)methanone]
DSS colitis model
  proportion of CD4+ IFNγ+ cells in the colonic lamina propria: reducing
  severity of disease by macroscopic scoring of the colon: reduced
CD4+ T cells; 10 nM
  proportion of CD4+ IFNγ+ cells: significantly reduced
CD4+ T cells; 100 nM
  proportion of CD4+ IFNγ+ cells: significantly reduced

## O=C(c1ncc(-c2ncccc2F)s1)[C@@H]1CN(C(=O)c2cc(F)c(F)cn2)CCO1 [Compound 34, 4,5-difluoro-pyridin-2-yl(2-(S)-(5-(3-fluoropyridin-2-yl)thiazol-2-carbonyl)-morpholin-4-yl)methanone]
CD4+ T cells; 10 nM
  proportion of CD4+ IFNγ+ cells: significantly reduced
CD4+ T cells; 100 nM
  proportion of CD4+ IFNγ+ cells: significantly reduced

## O=C(c1ncc(-c2ncccc2F)s1)[C@@H]1CN(C(=O)c2cnnc3ccccc23)CCO1 [Compound 37, cinnolin-4-yl(2-(S)-(5-(3-fluoropyridin-2-yl)thiazol-2-carbonyl)-morpholin-4-yl)methanone]
DSS colitis model
  proportion of CD4+ IFNγ+ cells in the colonic lamina propria: reducing
  severity of disease by macroscopic scoring of the colon: reduced
CD4+ T cells; 100 nM
  proportion of CD4+ IFNγ+ cells: significantly reduced

## O=C(c1ncc(-c2ncccc2F)s1)[C@@H]1CN(C(=O)c2cc(F)ccn2)CCO1 [Compound 40, 4-fluoro-pyridin-2-yl(2-(S)-(5-(3-fluoropyridin-2-yl)thiazol-2-carbonyl)-morpholin-4-yl)methanone]
DSS colitis model
  proportion of CD4+ IFNγ+ cells in the colonic lamina propria: reducing
  severity of disease by macroscopic scoring of the colon: reduced
CD4+ T cells; 10 nM
  proportion of CD4+ IFNγ+ cells: significantly reduced
CD4+ T cells; 100 nM
  proportion of CD4+ IFNγ+ cells: significantly reduced

## O=C1C=C(C(=O)N2CCO[C@H](C(=O)c3ncc(-c4ccccc4F)s3)C2)NN2CC=CC12 (stereo partly drawn) [Compound 69, 2-((S)-2-(5-(2-fluorophenyl)thiazole-2-carbonyl)morpholine-4-carbonyl)-4a,7-dihydropyrrolo[1,2-b]pyridazin-4(1H)-one]
CD4+ T cells; 100 nM
  proportion of CD4+ IFNγ+ cells: significantly reduced
